Reference: patent US9580444B2, “Polycyclic pyrazolinone derivative and herbicide comprising same as effective component thereof” (priority 2013, dated 2017)

Experiments:
Test in all cases: Test Example-1: herbicidal effect by a treatment before weeds are generated under submerged conditions
Type in all cases: in vivo
Details in all cases: 500 g a.i/ha, pre-emergence treatment, about 15 days after treatment, score 0-5
[1] = system: Cyperus difformis (smallflower umbrella plant)
Description: (§1) Using the formulation prepared according to the methods described above, the herbicidal effect of the bicyclic pyrazolinone derivative of the invention according to the methods shown in Test Examples below was examined. The herbicidal effect with respect to the test weeds or the phytotoxicity with respect to the test crops was examined according to the following criteria, and evaluated in six stage scores of 0 to 5.
(§2) A plastic cup of 30 cm^2 was filled with paddy soil, soil puddling was performed, seeds of Echinochloa oryzicola (barnyard grass), Cyperus difformis (smallflower umbrella plant), Monochoria vaginalis (monochoria), Scirpus juncoides (bulrush), and Eleocharis acicularis (needle spikerush), and Lindernia procumbens (common false pimpernel), Rotala indica (indian toothcup), Elatine triandra (waterwort) as other annual broad leaf weeds were seeded therein, and kept in a submerged state. A wettable powder or an emulsifiable concentrate of the compound of the present invention prepared according to Formulation Example was diluted on the weed seeding day, and a submersing treatment was performed so as to be a predetermined dosage. The herbicidal effect with respect to the test weeds about 15 days after the treatment was evaluated according to the evaluation criteria in six stages of 0 to 5 described above.

[2] = system: other annual broad leaf weeds (Lindernia procumbens, Rotala indica, Elatine triandra)
Description: as §1, §2

[3] = system: Monochoria vaginalis (monochoria)
Description: as §1, §2

[4] = system: Scirpus juncoides (bulrush)
Description: as §1, §2

[5] = system: Echinochloa oryzicola (barnyard grass)
Description: as §1, §2

[6] = system: Eleocharis acicularis (needle spikerush)
Description: as §1, §2

SMILES: COc1cc(Cl)ccc1Oc1cc(-c2c(Cl)n3n(c2=O)CCCC3)c(F)cc1Cl [Compound 3-37]
- Herbicidal effect Cyperus difformis [1]: 5 (Herbicidal effect/phytotoxicity was 90% or greater)
- Herbicidal effect Broadleaf weed [2]: 5 (Herbicidal effect/phytotoxicity was 90% or greater)
- Herbicidal effect Monochoria vaginalis [3]: 5 (Herbicidal effect/phytotoxicity was 90% or greater)
- Herbicidal effect Scirpus juncoides [4]: 5 (Herbicidal effect/phytotoxicity was 90% or greater)
- Herbicidal effect Echinochloa oryzicola [5]: 5 (Herbicidal effect/phytotoxicity was 90% or greater)
- Herbicidal effect Eleocharis acicularis [6]: 5 (Herbicidal effect/phytotoxicity was 90% or greater)

SMILES: C=CCOc1cc(Cl)ccc1Oc1cc(-c2c(Cl)n3n(c2=O)CCCC3)c(F)cc1Cl [Compound 3-38]
- Herbicidal effect Cyperus difformis [1]: 5 (Herbicidal effect/phytotoxicity was 90% or greater)
- Herbicidal effect Broadleaf weed [2]: 5 (Herbicidal effect/phytotoxicity was 90% or greater)
- Herbicidal effect Monochoria vaginalis [3]: 5 (Herbicidal effect/phytotoxicity was 90% or greater)
- Herbicidal effect Scirpus juncoides [4]: 5 (Herbicidal effect/phytotoxicity was 90% or greater)
- Herbicidal effect Echinochloa oryzicola [5]: 5 (Herbicidal effect/phytotoxicity was 90% or greater)
- Herbicidal effect Eleocharis acicularis [6]: 5 (Herbicidal effect/phytotoxicity was 90% or greater)

SMILES: C#CCOc1cc(Cl)ccc1Oc1cc(-c2c(Cl)n3n(c2=O)CCCC3)c(F)cc1Cl [Compound 3-39]
- Herbicidal effect Cyperus difformis [1]: 5 (Herbicidal effect/phytotoxicity was 90% or greater)
- Herbicidal effect Broadleaf weed [2]: 5 (Herbicidal effect/phytotoxicity was 90% or greater)
- Herbicidal effect Monochoria vaginalis [3]: 5 (Herbicidal effect/phytotoxicity was 90% or greater)
- Herbicidal effect Scirpus juncoides [4]: 5 (Herbicidal effect/phytotoxicity was 90% or greater)
- Herbicidal effect Echinochloa oryzicola [5]: 5 (Herbicidal effect/phytotoxicity was 90% or greater)
- Herbicidal effect Eleocharis acicularis [6]: 5 (Herbicidal effect/phytotoxicity was 90% or greater)

SMILES: CC1(COc2cc(-c3c(Cl)n4n(c3=O)CCCC4)c(F)cc2Cl)CC(c2ccccc2F)=NO1 (stereo not drawn) [Compound 4-3]
- Herbicidal effect Cyperus difformis [1]: 5 (Herbicidal effect/phytotoxicity was 90% or greater)
- Herbicidal effect Broadleaf weed [2]: 5 (Herbicidal effect/phytotoxicity was 90% or greater)
- Herbicidal effect Monochoria vaginalis [3]: 5 (Herbicidal effect/phytotoxicity was 90% or greater)
- Herbicidal effect Scirpus juncoides [4]: 5 (Herbicidal effect/phytotoxicity was 90% or greater)
- Herbicidal effect Echinochloa oryzicola [5]: 5 (Herbicidal effect/phytotoxicity was 90% or greater)
- Herbicidal effect Eleocharis acicularis [6]: 5 (Herbicidal effect/phytotoxicity was 90% or greater)

SMILES: CC1(COc2cc(-c3c(Cl)n4n(c3=O)CCCC4)c(F)cc2Cl)CC(c2ccc(F)cc2)=NO1 (stereo not drawn) [Compound 4-7]
- Herbicidal effect Cyperus difformis [1]: 5 (Herbicidal effect/phytotoxicity was 90% or greater)
- Herbicidal effect Broadleaf weed [2]: 5 (Herbicidal effect/phytotoxicity was 90% or greater)
- Herbicidal effect Monochoria vaginalis [3]: 5 (Herbicidal effect/phytotoxicity was 90% or greater)
- Herbicidal effect Scirpus juncoides [4]: 5 (Herbicidal effect/phytotoxicity was 90% or greater)
- Herbicidal effect Echinochloa oryzicola [5]: 5 (Herbicidal effect/phytotoxicity was 90% or greater)
- Herbicidal effect Eleocharis acicularis [6]: 5 (Herbicidal effect/phytotoxicity was 90% or greater)

SMILES: O=c1c(-c2ccc(F)cc2F)c(Cl)n2n1CCCC2 [Example 1-75]
- Herbicidal effect Cyperus difformis [1]: 5 (Herbicidal effect/phytotoxicity was 90% or greater)
- Herbicidal effect Broadleaf weed [2]: 5 (Herbicidal effect/phytotoxicity was 90% or greater)
- Herbicidal effect Monochoria vaginalis [3]: 5 (Herbicidal effect/phytotoxicity was 90% or greater)
- Herbicidal effect Scirpus juncoides [4]: 5 (Herbicidal effect/phytotoxicity was 90% or greater)
- Herbicidal effect Echinochloa oryzicola [5]: 5 (Herbicidal effect/phytotoxicity was 90% or greater)
- Herbicidal effect Eleocharis acicularis [6]: 5 (Herbicidal effect/phytotoxicity was 90% or greater)

SMILES: CC(C)CCOc1cc(-c2c(Cl)n3n(c2=O)CCCC3)c(F)cc1F [Example 1-93]
- Herbicidal effect Cyperus difformis [1]: 5 (Herbicidal effect/phytotoxicity was 90% or greater)
- Herbicidal effect Broadleaf weed [2]: 5 (Herbicidal effect/phytotoxicity was 90% or greater)
- Herbicidal effect Monochoria vaginalis [3]: 5 (Herbicidal effect/phytotoxicity was 90% or greater)
- Herbicidal effect Scirpus juncoides [4]: 5 (Herbicidal effect/phytotoxicity was 90% or greater)
- Herbicidal effect Echinochloa oryzicola [5]: 5 (Herbicidal effect/phytotoxicity was 90% or greater)
- Herbicidal effect Eleocharis acicularis [6]: 5 (Herbicidal effect/phytotoxicity was 90% or greater)

SMILES: O=c1c(-c2cc(OC3CCCC3)c(F)cc2F)c(Cl)n2n1CCCC2 [Example 1-98]
- Herbicidal effect Cyperus difformis [1]: 5 (Herbicidal effect/phytotoxicity was 90% or greater)
- Herbicidal effect Broadleaf weed [2]: 5 (Herbicidal effect/phytotoxicity was 90% or greater)
- Herbicidal effect Monochoria vaginalis [3]: 5 (Herbicidal effect/phytotoxicity was 90% or greater)
- Herbicidal effect Scirpus juncoides [4]: 5 (Herbicidal effect/phytotoxicity was 90% or greater)
- Herbicidal effect Echinochloa oryzicola [5]: 5 (Herbicidal effect/phytotoxicity was 90% or greater)
- Herbicidal effect Eleocharis acicularis [6]: 5 (Herbicidal effect/phytotoxicity was 90% or greater)

SMILES: C=C(C)COc1cc(-c2c(Cl)n3n(c2=O)CCCC3)c(F)cc1F [Example 1-106]
- Herbicidal effect Cyperus difformis [1]: 5 (Herbicidal effect/phytotoxicity was 90% or greater)
- Herbicidal effect Broadleaf weed [2]: 5 (Herbicidal effect/phytotoxicity was 90% or greater)
- Herbicidal effect Monochoria vaginalis [3]: 5 (Herbicidal effect/phytotoxicity was 90% or greater)
- Herbicidal effect Scirpus juncoides [4]: 5 (Herbicidal effect/phytotoxicity was 90% or greater)
- Herbicidal effect Echinochloa oryzicola [5]: 5 (Herbicidal effect/phytotoxicity was 90% or greater)
- Herbicidal effect Eleocharis acicularis [6]: 5 (Herbicidal effect/phytotoxicity was 90% or greater)

SMILES: C=C(C)COc1cc(-c2c(Cl)n3n(c2=O)CCCC3)c(F)cc1F [Example 1-109]
- Herbicidal effect Cyperus difformis [1]: 5 (Herbicidal effect/phytotoxicity was 90% or greater)
- Herbicidal effect Broadleaf weed [2]: 5 (Herbicidal effect/phytotoxicity was 90% or greater)
- Herbicidal effect Monochoria vaginalis [3]: 5 (Herbicidal effect/phytotoxicity was 90% or greater)
- Herbicidal effect Scirpus juncoides [4]: 5 (Herbicidal effect/phytotoxicity was 90% or greater)
- Herbicidal effect Echinochloa oryzicola [5]: 5 (Herbicidal effect/phytotoxicity was 90% or greater)
- Herbicidal effect Eleocharis acicularis [6]: 5 (Herbicidal effect/phytotoxicity was 90% or greater)

SMILES: O=c1c(-c2cc(OC3C=CCCC3)c(F)cc2F)c(Cl)n2n1CCCC2 (stereo not drawn) [Example 1-112]
- Herbicidal effect Cyperus difformis [1]: 5 (Herbicidal effect/phytotoxicity was 90% or greater)
- Herbicidal effect Broadleaf weed [2]: 5 (Herbicidal effect/phytotoxicity was 90% or greater)
- Herbicidal effect Monochoria vaginalis [3]: 5 (Herbicidal effect/phytotoxicity was 90% or greater)
- Herbicidal effect Scirpus juncoides [4]: 5 (Herbicidal effect/phytotoxicity was 90% or greater)
- Herbicidal effect Echinochloa oryzicola [5]: 5 (Herbicidal effect/phytotoxicity was 90% or greater)
- Herbicidal effect Eleocharis acicularis [6]: 5 (Herbicidal effect/phytotoxicity was 90% or greater)

SMILES: O=c1c(-c2ccc(Cl)cc2F)c(Cl)n2n1CCOCC2 [Example 1-129]
- Herbicidal effect Cyperus difformis [1]: 5 (Herbicidal effect/phytotoxicity was 90% or greater)
- Herbicidal effect Broadleaf weed [2]: 5 (Herbicidal effect/phytotoxicity was 90% or greater)
- Herbicidal effect Monochoria vaginalis [3]: 5 (Herbicidal effect/phytotoxicity was 90% or greater)
- Herbicidal effect Scirpus juncoides [4]: 5 (Herbicidal effect/phytotoxicity was 90% or greater)
- Herbicidal effect Echinochloa oryzicola [5]: 5 (Herbicidal effect/phytotoxicity was 90% or greater)
- Herbicidal effect Eleocharis acicularis [6]: 5 (Herbicidal effect/phytotoxicity was 90% or greater)

SMILES: O=c1c(-c2cc(OC(F)F)c(Cl)cc2F)c(Cl)n2n1CCCC2 [Example 1-143]
- Herbicidal effect Cyperus difformis [1]: 5 (Herbicidal effect/phytotoxicity was 90% or greater)
- Herbicidal effect Broadleaf weed [2]: 5 (Herbicidal effect/phytotoxicity was 90% or greater)
- Herbicidal effect Monochoria vaginalis [3]: 5 (Herbicidal effect/phytotoxicity was 90% or greater)
- Herbicidal effect Scirpus juncoides [4]: 5 (Herbicidal effect/phytotoxicity was 90% or greater)
- Herbicidal effect Echinochloa oryzicola [5]: 5 (Herbicidal effect/phytotoxicity was 90% or greater)
- Herbicidal effect Eleocharis acicularis [6]: 5 (Herbicidal effect/phytotoxicity was 90% or greater)

SMILES: CC(C)CCOc1cc(-c2c(Cl)n3n(c2=O)CCCC3)c(F)cc1Cl [Example 1-159]
- Herbicidal effect Cyperus difformis [1]: 5 (Herbicidal effect/phytotoxicity was 90% or greater)
- Herbicidal effect Broadleaf weed [2]: 5 (Herbicidal effect/phytotoxicity was 90% or greater)
- Herbicidal effect Monochoria vaginalis [3]: 5 (Herbicidal effect/phytotoxicity was 90% or greater)
- Herbicidal effect Scirpus juncoides [4]: 5 (Herbicidal effect/phytotoxicity was 90% or greater)
- Herbicidal effect Echinochloa oryzicola [5]: 5 (Herbicidal effect/phytotoxicity was 90% or greater)
- Herbicidal effect Eleocharis acicularis [6]: 5 (Herbicidal effect/phytotoxicity was 90% or greater)

SMILES: CC(C)(C)OC(=O)COc1cc(-c2c(Cl)n3n(c2=O)CCCC3)c(F)cc1Cl [Example 1-165]
- Herbicidal effect Cyperus difformis [1]: 5 (Herbicidal effect/phytotoxicity was 90% or greater)
- Herbicidal effect Broadleaf weed [2]: 5 (Herbicidal effect/phytotoxicity was 90% or greater)
- Herbicidal effect Monochoria vaginalis [3]: 5 (Herbicidal effect/phytotoxicity was 90% or greater)
- Herbicidal effect Scirpus juncoides [4]: 5 (Herbicidal effect/phytotoxicity was 90% or greater)
- Herbicidal effect Echinochloa oryzicola [5]: 5 (Herbicidal effect/phytotoxicity was 90% or greater)
- Herbicidal effect Eleocharis acicularis [6]: 5 (Herbicidal effect/phytotoxicity was 90% or greater)
